The values below come from PubChem BioAssay (NCI).

Common to all, as to test: NCI-60 cell line screen, 48 h
Assay [1] deals with HOP-92 NSCLC.
The test system of assay [2] is BT-549 breast.
In assay [3] the test system is HCT-116 colon.
Assay [4] deals with UACC-62 melanoma.
Assay [5] concerns SK-MEL-28 melanoma.
Assay [6] concerns CAKI-1 renal.
The subject of assay [7] is MALME-3M melanoma.
Assay [8] deals with HL-60(TB) leukemia.
Assay [9] relates to SF-539 CNS.
The subject of assay [10] is DU-145 prostate.

Values joined by “and” are separate entries in the source; they are usually repeats but may differ in a detail not shown here. Equal entries are not always repeated.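 Five compound concentrations were applied to cells in 96-well plates for 48 hours; endpoints were derived by simple linear interpolation of the resulting dose-response curve. GI50 marks 50% less growth. TGI is the concentration that stops growth completely.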

Regarding `CCN1C(=O)N(CC)C2C1NN=c1s/c(=C\c3cnc(C)n3C)c(=O)n12` (stereo unspecified), the GI50 is 4.85 µM in assay [1]; 3.66 µM in [2]; 2.43 µM in [3]; 1.14 µM in [4]; 5.2 µM in assay [5]; 0.7 µM in assay [6]. Further, the GI50 in [7] was 2.96 µM; in assay [8], 1.61 µM; in assay [9] it was 1.78 µM; in assay [10], 2.51 µM. Also, the TGI in assay [1] was 96.1 µM; in assay [2], 90.9 µM; in [3], above 100 µM; in assay [4] it was 88 µM; in assay [5], above 100 µM; in [6], above 100 µM. The TGI in [7] is above 100 µM; in assay [8], 4.03 µM; in assay [9] it was 5.19 µM; in assay [10], above 100 µM.
As to `O=C(CN1CCN(c2ccccn2)CC1)Nc1ccc(Cl)cc1C(=O)c1ccccc1Cl`, the GI50 in assay [1] was 2.52 µM; in [2] it was 81.4 µM; in assay [3], 10 µM; in [4], 12.8 µM; in assay [5] it was above 100 µM; in [6] it was above 100 µM. In addition, the GI50 was above 100 µM in [7], 5.51 µM in [8], 45.9 µM in assay [9] and above 100 µM in [10]. The TGI in assay [1] was 53.7 µM; in assay [2], above 100 µM; in assay [3], above 100 µM; in assay [4], above 100 µM; in [5], above 100 µM; in [6], above 100 µM. Further, the TGI in assay [7], in [8], in assay [9] and in [10] was above 100 µM throughout.
Take `CSc1nc(-c2cccc(NC(=O)CCl)c2)c(C#N)c(=O)n1C`: the GI50 is 1.75 µM in [1]; 1.51 µM in assay [2]; 0.621 µM in assay [3]; 1.5 µM in assay [4]; 2.85 µM in [5]; 1.68 µM in [6]. For the same compound, the GI50 in assay [7] was 1.17 µM; in assay [8] it was 1.81 µM; in assay [9] it was 1.47 µM; in [10] it was 1.77 µM. Further, the TGI in [1] worked out at 3.38 µM; in [2] it was 3.02 µM; in [3], 4.07 µM; in assay [4] it was 3.73 µM; in assay [5], 9.58 µM; in assay [6] it was 3.07 µM. Further, the TGI in [7] was 2.66 µM; in assay [8], 4.88 µM; in assay [9], 2.88 µM; in [10], 3.44 µM.
Regarding `CCCC(CCC)C(=O)O`, the GI50 in [1], in assay [2], in assay [3], in assay [4], in [6] and in [7] was above 100 µM in each case. Besides, the GI50 in [8], in assay [9] and in assay [10] was above 100 µM in each case. Further, the TGI in [1] is above 20000 µM; in assay [2], above 20000 µM; in assay [3] it was above 20000 µM; in [4], above 20000 µM; in assay [5], above 100 µM; in assay [6], above 20000 µM. In addition, the TGI in assay [7], in assay [8], in assay [9] and in assay [10] was above 20000 µM throughout.
As to `CCC(=O)OCN1C(=O)C=CC1=O`, the GI50 in [1] was 2.65 µM; in assay [3], 11.8 µM; in assay [6], 10.5 µM; in [7], 16 µM; in assay [8], 17.3 µM; in assay [9] it was 20.5 µM. Further, the GI50 in assay [10] is 20 µM. For the same compound, the TGI was 16.7 µM and 31.6 µM in assay [1]; 33.3 µM and 34.4 µM in [2]; 25.8 µM and 29.9 µM in assay [3]; 31.8 µM and 30.7 µM in [4]; 33.3 µM and 33.4 µM in assay [5]; 25.3 µM and 9.35 µM in [6]. Moreover, the TGI in [7] is 31.5 µM and 27.6 µM; in assay [8], 70.4 µM and 8.36 µM; in assay [9], 36.8 µM and 33.8 µM; in assay [10], 34.2 µM and 30.2 µM.
Take `Nc1ncnc2c1ncn2C1OC(C(=O)OCCO)C(O)C1O` (stereo unspecified): the TGI in [1], in [2], in assay [3], in assay [4], in assay [5] and in [6] was above 100 µM each time. The TGI in [7], in assay [8], in [9] and in assay [10] was above 100 µM throughout.
On to `Cn1c(=O)c2[nH]cnc2n(C)c1=O.[CH2-]C(Cc1cccc2cc(C(=O)O)c(=O)oc12)OC.[Hg+2].[OH-]` (stereo unspecified), for which the GI50 is 15.6 µM in [1]; 17.3 µM in [2]; 16.8 µM in [3]; 17.3 µM in [4]; 19.1 µM in assay [5]; 18 µM in assay [6]. In addition, the GI50 in assay [7] is 8.67 µM; in assay [8] it was 30.5 µM; in assay [9], 14.6 µM; in assay [10], 17 µM. The TGI in assay [1] came out at 29.9 µM; in assay [2], 31.2 µM; in [3], 30.5 µM; in [4], 31.3 µM; in assay [5] it was 33.5 µM; in [6], 32 µM. For the same compound, the TGI in assay [7] worked out at 20.4 µM; in [8], 58.3 µM; in assay [9], 29.8 µM; in assay [10], 31.6 µM.
Turning to `C=CC(=O)Nc1cccc(Nc2nc(Nc3ccc(N4CCN(C(C)=O)CC4)cc3OC)ncc2C(F)(F)F)c1`, the GI50 was 0.787 µM and 0.525 µM in assay [1]; 4.14 µM in assay [2]; 3.96 µM and 2.54 µM in assay [3]; 2.7 µM in assay [4]; 8.43 µM in assay [5]; 2.32 µM and 1.64 µM in assay [6]. In addition, the GI50 in assay [7] is 8.88 µM and 3.09 µM; in assay [8], 1.26 µM and 2.26 µM; in assay [9] it was 4.47 µM and 3.17 µM; in assay [10] it was 4.23 µM and 2.39 µM. Further, the TGI was 4.88 µM and 4.21 µM in assay [1]; > 10 µM and 10.6 µM in assay [2]; above 54.4 µM in [3]; 22.6 µM in assay [4]; above 93.1 µM in assay [5]; > 10 µM and 6.01 µM in assay [6]. In addition, the TGI was > 10 µM and 16.4 µM in assay [7]; above 34 µM in [8]; > 10 µM and 14.2 µM in assay [9]; > 10 µM and 17.3 µM in [10].
